The source made the active and inactive calls.
Legend:
Type in all cases: functional, organism-based
Staphylococcus aureus [1] = experiment: Anti-biofilm activity against methicillin-resistant Staphylococcus aureus USA300 LAC assessed as inhibition of biofilm formation incubated for 22 hrs by crystal violet staining based assay
Staphylococcus aureus [2] = experiment: Antibacterial activity against methicillin-resistant Staphylococcus aureus USA300 LAC assessed as bacterial growth inhibition at 5 ug/ml incubated for 22 hrs by microplate reader analysis; conditions: dose 5.0 µg/ml
Staphylococcus = experiment: Antivirulence activity against methicillin-resistant Staphylococcus aureus USA300 LAC assessed as inhibition of Phenol soluble modulin production at 5 ug/ml incubated for 22 hrs by LC-MS analysis; conditions: dose 5.0 µg/ml
Staphylococcus aureus [3] = experiment: Antibacterial activity against methicillin-resistant Staphylococcus aureus USA300 LAC assessed as bacterial growth inhibition at 10 ug/ml incubated for 22 hrs by microplate reader analysis; conditions: dose 10.0 µg/ml
Staphylococcus aureus [4] = experiment: Antivirulence activity against methicillin-resistant Staphylococcus aureus USA300 LAC assessed as change in […] transcriptional level at 10 ug/ml incubated for 8 to 16 hrs by qRT-PCR analysis; conditions: dose 10.0 µg/ml, time 8-16 hrs
Staphylococcus aureus [5] = experiment: Antivirulence activity against methicillin-resistant Staphylococcus aureus USA300 LAC assessed as change in RNAIII transcriptional level at 10 ug/ml incubated for 8 to 16 hrs by qRT-PCR analysis; conditions: dose 10.0 µg/ml, time 8-16 hrs

COc1c(-c2ccccc2)cc(O[C@@H]2O[C@H](C(=O)O)[C@@H](O)[C@H](O)[C@H]2O)c(-c2ccccc2)c1O
inactive: Activity (Staphylococcus aureus [1]) | Activity (Staphylococcus aureus [2]) | inhibition (Staphylococcus)

CO[C@@H](C[C@H](C)Cc1cc(O)cc(NC(C)=O)c1)[C@H](O)[C@H](C)C(=O)O
inactive: Activity (Staphylococcus aureus [3]) | Activity (Staphylococcus aureus [4]) | Activity (Staphylococcus aureus [1]) | Activity (Staphylococcus aureus [2]) | inhibition (Staphylococcus) | Activity (Staphylococcus aureus [5])

CO[C@@H](C[C@H](C)Cc1cc(O)cc(NC(C)=O)c1)C(=O)O
inactive: Activity (Staphylococcus aureus [1]) | Activity (Staphylococcus aureus [2]) | inhibition (Staphylococcus)

CO[C@H]1/C=C\C=C(/C)C(=O)NC2=CC(=O)C(O)=C(C[C@@H](C)C[C@H](OC)[C@H](O)[C@@H](C)/C=C(\C)[C@@H]1OC(N)=O)C2=O
inactive: Activity (Staphylococcus aureus [3]) | Activity (Staphylococcus aureus [4]) | Activity (Staphylococcus aureus [1]) | Activity (Staphylococcus aureus [2]) | inhibition (Staphylococcus) | Activity (Staphylococcus aureus [5])

CO[C@H]1/C=C\C=C(/C)C(=O)Nc2cc(O)c(O)c(c2O)C[C@@H](C)C[C@H](OC)[C@H](O)[C@@H](C)/C=C(\C)[C@@H]1OC(N)=O
inactive: Activity (Staphylococcus aureus [1]) | Activity (Staphylococcus aureus [2]) | inhibition (Staphylococcus)

COC1=C2C[C@@H](C)C[C@H](OC)[C@H](O)[C@@H](C)/C=C(\C)[C@H](OC(N)=O)[C@@H](OC)/C=C\C=C(/C)C(=O)NC(=CC1=O)C2=O
inactive: Activity (Staphylococcus aureus [3]) | Activity (Staphylococcus aureus [4]) | Activity (Staphylococcus aureus [1]) | Activity (Staphylococcus aureus [2]) | inhibition (Staphylococcus) | Activity (Staphylococcus aureus [5])

CO[C@H]1C[C@H](C)CC2=C(O)C(=O)C=C(NC(=O)/C(C)=C/[C@H](O)C[C@H](OC)[C@@H](OC(N)=O)/C(C)=C/[C@H](C)[C@H]1O)C2=O
inactive: Activity (Staphylococcus aureus [1]) | Activity (Staphylococcus aureus [2]) | inhibition (Staphylococcus)

O=C(O)/C=C/C1=C(c2cccc(O)c2)C(=O)CC[C@H]1O
inactive: Activity (Staphylococcus aureus [1]) | Activity (Staphylococcus aureus [2]) | inhibition (Staphylococcus)

CC(=O)Nc1cc(O)cc(C[C@@H](C)C(=O)O)c1
inactive: Activity (Staphylococcus aureus [1]) | Activity (Staphylococcus aureus [2]) | inhibition (Staphylococcus)

Cc1cc(C[C@H](NC(=O)/C=C/C=C/CO)C(=O)O)ccc1O
inactive: Activity (Staphylococcus aureus [1]) | Activity (Staphylococcus aureus [2]) | inhibition (Staphylococcus)

CO[C@H]1C[C@H](C)CC2=C(O)C(=O)C=C(NC(=O)/C(C)=C/[C@@H](O)C[C@H](OC)[C@@H](OC(N)=O)/C(C)=C/[C@H](C)[C@H]1O)C2=O
inactive: Activity (Staphylococcus aureus [1]) | Activity (Staphylococcus aureus [2]) | inhibition (Staphylococcus)
